The results in this text go back to patent publication US20240043404A1 (AbbVie Inc., priority 2009, published 2024).

Molecules are shown by their SMILES. Some results are limits rather than exact numbers.

The test system of the test is RS4;11 cells. The test is described as follows: RS4;11 cell viability assay (CellTiter Glo).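 Note: acute lymphoblastic leukemia line RS4,11, EC50 derived from percentage of viable cells after treatment relative to untreated controls, cell killing taken as a measure of Bcl-2 inhibition.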 Format: cell-based, human. As to conditions: Homo sapiens, RS4-11, 48 h, 50,000 cells per well, 10% human serum, 48 hours; read-out: RS4; 11 EC50 Values.
Method: The acute lymphoblastic leukemia (ALL) cell line RS4;11 was used as the primary human cell line to assess the cellular activity of Bcl-2 selective agents in vitro and their efficacy in vivo.
Cell cytotoxicity EC50 values were assessed using CellTiter Glo (Promega) according to the manufacturer's recommendations. The EC50 values were determined as a percentage of viable cells following treatment compared to the untreated control cells.
Take `CC1(C)CC(c2ccc(Cl)cc2)=C(CN2CCN(c3ccc(C(=O)NS(=O)(=O)c4ccc(NCC5COCCO5)c([N+](=O)[O-])c4)c(Oc4cnc5[nH]ccc5c4)c3)CC2)CO1` (stereo not shown) [Example 31, 4-(4-{[4-(4-chlorophenyl)-6,6-dimethyl-5,6-dihydro-2H-pyran-3-yl]methyl}piperazin-1-yl)-N-({4-[(1,4-dioxan-2-ylmethyl)amino]-3-nitrophenyl}sulfonyl)-2-(1H-pyrrolo[2,3-b]pyridin-5-yloxy)benzamide]: the EC50 came to 0.0157 µM. The figure for `CCOC(=O)N1CCN(c2ccc(S(=O)(=O)NC(=O)c3ccc(N4CCN(CC5=C(c6ccc(Cl)cc6)CC(C)(C)CC5)CC4)cc3Oc3cnc4[nH]ccc4c3)cc2[N+](=O)[O-])CC1` [Example 222, ethyl 4-(4-{[4-(4-{[2-(4-chlorophenyl)-4,4-dimethylcyclohex-1-en-1-yl]methyl}piperazin-1-yl)-2-(1H-pyrrolo[2,3-b]pyridin-5-yloxy)benzoyl]sulfamoyl}-2-nitrophenyl)piperazine-1-carboxylate] is more than 1 µM; for `CC1(C)CC(c2ccc(Cl)cc2)=C(CN2CCN(c3ccc(C(=O)NS(=O)(=O)c4ccc(N[C@H]5CC[C@H](N6CCOCC6)CC5)c([N+](=O)[O-])c4)c(Oc4cnc5[nH]ccc5c4)c3)CC2)CO1` [Example 33, Trans-4-(4-{[4-(4-chlorophenyl)-6,6-dimethyl-5,6-dihydro-2H-pyran-3-yl]methyl}piperazin-1-yl)-N-({4-[(4-morpholin-4-ylcyclohexyl)amino]-3-nitrophenyl}sulfonyl)-2-(1H-pyrrolo[2,3-b]pyridin-5-yloxy)benzamide] it is 0.00711 µM; for `CC1(C)CCC(CN2CCN(c3ccc(C(=O)NS(=O)(=O)c4ccc(NCC5CCOCC5)c(S(F)(F)(F)(F)F)c4)c(Oc4cnc5[nH]ccc5c4)c3)CC2)=C(c2ccc(Cl)cc2)C1` [Example 233, 4-(4-{[2-(4-chlorophenyl)-4,4-dimethylcyclohex-1-en-1-yl]methyl}piperazin-1-yl)-N-({3-(pentafluoro-lambda˜6˜-sulfanyl)-4-[(tetrahydro-2H-pyran-4-ylmethyl)amino]phenyl}sulfonyl)-2-(1H-pyrrolo[2,3-b]pyridin-5-yloxy)benzamide] it is more than 1 µM. As for `CC1(C)CC(c2ccc(Cl)cc2)=C(CN2CCN(c3ccc(C(=O)NS(=O)(=O)c4ccc(N[C@H]5CC[C@H](N6CCOCC6)CC5)c(S(=O)(=O)C(F)(F)F)c4)c(Oc4cnc5[nH]ccc5c4)c3)CC2)CO1` [Example 44, Trans-4-(4-{[4-(4-chlorophenyl)-6,6-dimethyl-5,6-dihydro-2H-pyran-3-yl]methyl}piperazin-1-yl)-N-({4-[(4-morpholin-4-ylcyclohexyl)amino]-3-[(trifluoromethyl)sulfonyl]phenyl}sulfonyl)-2-(1H-pyrrolo[2,3-b]pyridin-5-yloxy)benzamide], the EC50 came to 0.0531 µM.

On to `CC1(C)CCC(CN2CCN(c3ccc(C(=O)NS(=O)(=O)c4cnc(OCC5CCC(N(C6CC6)C6COC6)CC5)c(Cl)c4)c(Oc4cnc5[nH]ccc5c4)c3)CC2)=C(c2ccc(Cl)cc2)C1` (stereo not shown) [Example 329, N-{[5-chloro-6-({4-[cyclopropyl(oxetan-3-yl)amino]cyclohexyl}methoxy)pyridin-3-yl]sulfonyl}-4-(4-{[2-(4-chlorophenyl)-4,4-dimethylcyclohex-1-en-1-yl]methyl}piperazin-1-yl)-2-(1H-pyrrolo[2,3-b]pyridin-5-yloxy)benzamide], for which the EC50 was 0.424 µM.

Turning to `CC1CN(c2ccc(C(=O)NS(=O)(=O)c3ccc(NCC4CCOCC4)c([N+](=O)[O-])c3)c(Oc3cnc4[nH]ccc4c3)c2)CCN1CC1=C(c2ccc(Cl)cc2)CC(C)(C)CC1` (stereo not shown) [Example 290, 4-(4-{[2-(4-chlorophenyl)-4,4-dimethylcyclohex-1-en-1-yl]methyl}-3-methylpiperazin-1-yl)-N-({3-nitro-4-[(tetrahydro-2H-pyran-4-ylmethyl)amino]phenyl}sulfonyl)-2-(1H-pyrrolo[2,3-b]pyridin-5-yloxy)benzamide], the EC50 stood at 0.107 µM.
